# Reference: ChEMBL document CHEMBL3044788, “α-(Substituted-phenoxyacetoxy)-α-heterocyclylmethylphosphonates: synthesis, herbicidal activity, inhibition on pyruvate dehydrogenase complex (PDHc), and application as postemergent herbicide against broadleaf weeds” (J Agric Food Chem, 2013)
# Key:
# Eclipta prostrata [1] = test: Herbicidal activity against two to three-leaf stage Eclipta prostrata assessed as inhibition of plant growth at 450 g/ha in greenhouse by post-emergence herbicidal activity assay; type: functional; details: read-out: GI
# [2] = test system: Brassica rapa subsp. oleifera; test: Herbicidal activity against two to three-leaf stage Brassica rapa subsp. oleifera assessed as inhibition of plant growth at 450 g/ha in greenhouse by postemergence herbicidal activity assay; type: functional; details: post-emergence, read-out: GI
# Eclipta prostrata [3] = test: Herbicidal activity against two to three-leaf stage Eclipta prostrata assessed as inhibition of plant growth at 150 g/ha in greenhouse by post-emergence herbicidal activity assay; type: functional; details: read-out: GI
# [4] = test system: Brassica rapa subsp. oleifera; test: Herbicidal activity against two to three-leaf stage Brassica rapa subsp. oleifera assessed as inhibition of plant growth at 150 g/ha in greenhouse by postemergence herbicidal activity assay; type: functional; details: post-emergence, read-out: GI
# Amaranthus retroflexus [5] = test: Herbicidal activity against 2 to 3 leaf stage Amaranthus retroflexus assessed as inhibition of plant growth at 450 g/ha in greenhouse by postemergence herbicidal activity assay; type: functional; details: post-emergence, read-out: GI
# Amaranthus retroflexus [6] = test: Herbicidal activity against 2 to 3 leaf stage Amaranthus retroflexus assessed as inhibition of plant growth at 150 g/ha in greenhouse by postemergence herbicidal activity assay; type: functional; details: post-emergence, read-out: GI
# Abutilon theophrasti [7] = test: Herbicidal activity against two to three-leaf stage Abutilon theophrasti (velvetleaf) assessed as inhibition of plant growth at 150 g/ha in greenhouse by post-emergence herbicidal activity assay; type: functional; details: read-out: GI
# Abutilon theophrasti [8] = test: Herbicidal activity against two to three-leaf stage Abutilon theophrasti (velvetleaf) assessed as inhibition of plant growth at 450 g/ha in greenhouse by post-emergence herbicidal activity assay; type: functional; details: read-out: GI
# [9] = test system: Brassica rapa subsp. oleifera; test: Herbicidal activity against Brassica rapa subsp. oleifera assessed as inhibition of rape root growth; type: functional, organism-based
# [10] = test system: Brassica rapa subsp. oleifera; test: Herbicidal activity against Brassica rapa subsp. oleifera assessed as inhibition of rape root growth at 450 g/ha by pre-emergence herbicidal activity assay; type: functional; details: read-out: GI
# [11] = test system: Brassica rapa subsp. oleifera; test: Herbicidal activity against Brassica rapa subsp. oleifera assessed as inhibition of rape root growth at 450 g/ha by postemergence herbicidal activity assay; type: functional; details: post-emergence, read-out: GI
smiles,measurement,setting,value
COP(=O)(OC)C(OC(=O)COc1ccc(F)cc1F)c1cccs1 (stereo unspecified),inhibition of growth at 450 g/ha,Eclipta prostrata [1],70%
same,inhibition of growth at 450 g/ha,[2],80%
same,inhibition of growth at 150 g/ha,Eclipta prostrata [3],60%
same,inhibition of growth at 150 g/ha,[4],70%
same,inhibition of growth at 450 g/ha,Amaranthus retroflexus [5],70%
same,inhibition of growth at 150 g/ha,Amaranthus retroflexus [6],60%
same,inhibition of growth at 150 g/ha,Abutilon theophrasti [7],60%
same,inhibition of growth at 450 g/ha,Abutilon theophrasti [8],75%
COP(=O)(OC)C(OC(=O)COc1ccc(Cl)cc1F)c1cccs1 (stereo unspecified),inhibition of growth at 450 g/ha,Eclipta prostrata [1],90%
same,inhibition of growth at 450 g/ha,[2],75%
same,inhibition of growth at 150 g/ha,Eclipta prostrata [3],70%
same,inhibition of growth at 150 g/ha,[4],70%
same,inhibition of growth at 450 g/ha,Amaranthus retroflexus [5],75%
same,inhibition of growth at 150 g/ha,Amaranthus retroflexus [6],70%
same,inhibition of growth at 150 g/ha,Abutilon theophrasti [7],70%
same,inhibition of growth at 450 g/ha,Abutilon theophrasti [8],75%
COP(=O)(OC)C(OC(=O)COc1ccc(F)cc1Cl)c1cccs1 (stereo unspecified),inhibition of growth at 450 g/ha,Eclipta prostrata [1],85%
same,inhibition of growth at 450 g/ha,[2],95%
same,inhibition of growth at 150 g/ha,Eclipta prostrata [3],80%
same,inhibition of growth at 150 g/ha,[4],75%
same,inhibition of growth at 450 g/ha,Amaranthus retroflexus [5],100%
same,inhibition of growth at 150 g/ha,Amaranthus retroflexus [6],90%
same,inhibition of growth at 150 g/ha,Abutilon theophrasti [7],70%
same,inhibition of growth at 450 g/ha,Abutilon theophrasti [8],90%
COP(=O)(OC)C(OC(=O)COc1cc(Cl)c(Cl)cc1Cl)c1cccs1 (stereo unspecified),inhibition of growth at 450 g/ha,Eclipta prostrata [1],50%
same,inhibition of growth at 450 g/ha,[2],95%
same,inhibition of growth at 150 g/ha,Eclipta prostrata [3],80%
same,inhibition of growth at 150 g/ha,[4],80%
same,inhibition of growth at 450 g/ha,Amaranthus retroflexus [5],90%
same,inhibition of growth at 150 g/ha,Amaranthus retroflexus [6],80%
same,inhibition of growth at 150 g/ha,Abutilon theophrasti [7],80%
same,inhibition of growth at 450 g/ha,Abutilon theophrasti [8],85%
COP(=O)(OC)C(O)c1ccco1 (stereo unspecified),IC50,[9],> 4670 µM
same,inhibition of growth at 450 g/ha,[10],25%
same,inhibition of growth at 450 g/ha,[11],20%
COP(=O)(OC)C(=O)c1ccco1,IC50,[9],237 µM
same,inhibition of growth at 450 g/ha,[10],56%
same,inhibition of growth at 450 g/ha,[11],50%
COP(=O)(OC)C(OC(=O)COc1ccccc1)c1ccco1 (stereo unspecified),inhibition of growth at 150 g/ha,Eclipta prostrata [3],31%
same,inhibition of growth at 150 g/ha,[4],28%
same,inhibition of growth at 150 g/ha,Amaranthus retroflexus [6],6%
same,inhibition of growth at 150 g/ha,Abutilon theophrasti [7],22%
COP(=O)(OC)C(OC(=O)COc1cccc(C)c1)c1ccco1 (stereo unspecified),inhibition of growth at 150 g/ha,Eclipta prostrata [3],30%
same,inhibition of growth at 150 g/ha,[4],37%
same,inhibition of growth at 150 g/ha,Amaranthus retroflexus [6],36%
same,inhibition of growth at 150 g/ha,Abutilon theophrasti [7],39%
COP(=O)(OC)C(OC(=O)COc1ccc(C)cc1)c1ccco1 (stereo unspecified),inhibition of growth at 150 g/ha,Eclipta prostrata [3],30%
same,inhibition of growth at 150 g/ha,[4],36%
same,inhibition of growth at 150 g/ha,Amaranthus retroflexus [6],23%
same,inhibition of growth at 150 g/ha,Abutilon theophrasti [7],32%
COP(=O)(OC)C(OC(=O)COc1cccc(C)c1C)c1ccco1 (stereo unspecified),inhibition of growth at 150 g/ha,Eclipta prostrata [3],30%
same,inhibition of growth at 150 g/ha,[4],40%
same,inhibition of growth at 150 g/ha,Amaranthus retroflexus [6],50%
same,inhibition of growth at 150 g/ha,Abutilon theophrasti [7],50%
COP(=O)(OC)C(OC(=O)COc1ccc(Br)cc1)c1ccco1 (stereo unspecified),inhibition of growth at 150 g/ha,Eclipta prostrata [3],60%
same,inhibition of growth at 150 g/ha,[4],75%
same,inhibition of growth at 150 g/ha,Amaranthus retroflexus [6],60%
same,inhibition of growth at 150 g/ha,Abutilon theophrasti [7],40%
COP(=O)(OC)C(OC(=O)COc1ccccc1Cl)c1ccco1 (stereo unspecified),inhibition of growth at 150 g/ha,Eclipta prostrata [3],30%
same,inhibition of growth at 150 g/ha,[4],40%
same,inhibition of growth at 150 g/ha,Amaranthus retroflexus [6],40%
same,inhibition of growth at 150 g/ha,Abutilon theophrasti [7],0%
COP(=O)(OC)C(OC(=O)COc1ccc(C#N)cc1)c1ccco1 (stereo unspecified),inhibition of growth at 150 g/ha,Eclipta prostrata [3],30%
same,inhibition of growth at 150 g/ha,[4],40%
same,inhibition of growth at 150 g/ha,Amaranthus retroflexus [6],50%
same,inhibition of growth at 150 g/ha,Abutilon theophrasti [7],40%
COP(=O)(OC)C(OC(=O)COc1cccc(C(F)(F)F)c1)c1ccco1 (stereo unspecified),inhibition of growth at 150 g/ha,Eclipta prostrata [3],0%
same,inhibition of growth at 150 g/ha,[4],0%
same,inhibition of growth at 150 g/ha,Amaranthus retroflexus [6],0%
same,inhibition of growth at 150 g/ha,Abutilon theophrasti [7],0%
COP(=O)(OC)C(OC(=O)COc1ccc(C(F)(F)F)cc1)c1ccco1 (stereo unspecified),inhibition of growth at 150 g/ha,Eclipta prostrata [3],0%
same,inhibition of growth at 150 g/ha,[4],0%
same,inhibition of growth at 150 g/ha,Amaranthus retroflexus [6],0%
same,inhibition of growth at 150 g/ha,Abutilon theophrasti [7],0%
COP(=O)(OC)C(OC(=O)COc1ccccc1F)c1ccco1 (stereo unspecified),inhibition of growth at 150 g/ha,Eclipta prostrata [3],60%
same,inhibition of growth at 150 g/ha,[4],75%
same,inhibition of growth at 150 g/ha,Amaranthus retroflexus [6],60%
same,inhibition of growth at 150 g/ha,Abutilon theophrasti [7],40%
COP(=O)(OC)C(OC(=O)COc1ccc(Cl)cc1F)c1ccco1 (stereo unspecified),inhibition of growth at 150 g/ha,Eclipta prostrata [3],70%
same,inhibition of growth at 150 g/ha,[4],75%
same,inhibition of growth at 150 g/ha,Amaranthus retroflexus [6],60%
same,inhibition of growth at 150 g/ha,Abutilon theophrasti [7],70%
COP(=O)(OC)C(OC(=O)COc1ccc(F)cc1Cl)c1ccco1 (stereo unspecified),inhibition of growth at 150 g/ha,Eclipta prostrata [3],75%
same,inhibition of growth at 150 g/ha,[4],85%
same,inhibition of growth at 150 g/ha,Amaranthus retroflexus [6],90%
same,inhibition of growth at 150 g/ha,Abutilon theophrasti [7],75%
